BindingDB's records for doi:10.3109/14756366.2013.793184 (Nycomed, 2014)
“And” between values parts separate entries of the source, which are not always exact repeats. Equal values may be shown once.

Target: Inosine-5'-monophosphate dehydrogenase 2 (Homo sapiens, UniProt P12268)
Test: Enzyme Assay
Details: pH 8; 37 °C
Method: The reaction was initiated by the addition of 300 μM of IMP and 500 μM of NAD+ and the assay was allowed to proceed at 37 °C for 50 min before stopping by the addition of 15 mM GMP. The NADH generated was measured by reading the absorbance at 340 nm.

| IC50 | SMILES |
| --- | --- |
| 0.23 µM | CCC(CC#N)OC(=O)N[C@@H](C)c1cccc(NC(=O)Nc2ccc(OC)c(OC)c2)c1 (some centres not stated) [IMPDH II inhibitor, 13] |
| 19 µM | CCC(CC#N)OC(=O)N[C@@H](C)c1cccc(NC(=O)Nc2ccc(C)c(OC)c2)c1 (some centres not stated) [IMPDH II inhibitor, 14] |
| < 30 µM | CCC(CC#N)OC(=O)N[C@@H](C)c1cccc(NC(=O)Nc2ccc(N3CCOCC3)c(OC)c2)c1 (some centres not stated) [IMPDH II inhibitor, 15] |
| 3.5 µM | CCC(CC#N)OC(=O)N[C@@H](C)c1cccc(NC(=O)Nc2ccc(C3=CCOCC3)c(OC)c2)c1 (some centres not stated) [IMPDH II inhibitor, 16] |
| < 30 µM | CCC(CC#N)OC(=O)N[C@@H](C)c1cccc(NC(=O)Nc2ccc(C3CCOCC3)c(OC)c2)c1 (some centres not stated) [IMPDH II inhibitor, 17] |
| 10 µM | CCC(CC#N)OC(=O)N[C@@H](C)c1cccc(NC(=O)Nc2ccc3c(c2)OCC3)c1 (some centres not stated) [IMPDH II inhibitor, 18] |
| > 30 µM | CCC(CC#N)OC(=O)N[C@@H](C)c1cccc(NC(=O)Nc2ccc3c(c2)OCO3)c1 (some centres not stated) [IMPDH II inhibitor, 20] |
| 14 µM | CCC(CC#N)OC(=O)N[C@@H](C)c1cccc(NC(=O)Nc2ccc3c(c2)ncn3C)c1 (some centres not stated) [IMPDH II inhibitor, 21] |
| < 30 µM | CCC(CC#N)OC(=O)N[C@@H](C)c1cccc(NC(=O)Nc2ccc3ncc(OC)nc3c2)c1 (some centres not stated) [IMPDH II inhibitor, 22] |
| < 30 µM | CCC(CC#N)OC(=O)N[C@@H](C)c1cccc(NC(=O)Nc2ccc3cc(OC)c(OC)cc3c2)c1 (some centres not stated) [IMPDH II inhibitor, 23] |
| < 30 µM | CCC(CC#N)OC(=O)N[C@@H](C)c1cccc(NC(=O)Nc2ccc3c(c2)C(C)CO3)c1 (some centres not stated) [IMPDH II inhibitor, 24] |
| < 30 µM | CCC(CC#N)OC(=O)N[C@@H](C)c1cccc(NC(=O)Nc2ccc3ncnc(OC)c3c2)c1 (some centres not stated) [IMPDH II inhibitor, 25] |
| < 30 µM and 30 µM | CCC(CC#N)OC(=O)N[C@@H](C)c1cccc(NC(=N)Nc2ccc(C#N)c(OC)c2)c1 (some centres not stated) [IMPDH II inhibitor, 30] |
| < 30 µM | CCC(CC#N)OC(=O)N[C@@H](C)c1cccc(NC(=N)Nc2ccc(OC)c(OC)c2)c1 (some centres not stated) [IMPDH II inhibitor, 31] |
| 3 µM | CCC(CC#N)OC(=O)N[C@@H](C)c1cccc(N/C(=N/C#N)Nc2ccc(C#N)c(OC)c2)c1 (some centres not stated) [IMPDH II inhibitor, 32] |
| 5.6 µM | CCC(CC#N)OC(=O)N[C@@H](C)c1cccc(N/C(=N/C#N)Nc2ccc(OC)c(OC)c2)c1 (some centres not stated) [IMPDH II inhibitor, 33] |
| < 30 µM | CCC(CC#N)OC(=O)N[C@@H](C)c1cccc(N/C(=C/[N+](=O)[O-])Nc2ccc(C#N)c(OC)c2)c1 (some centres not stated) [IMPDH II inhibitor, 34] |
| < 30 µM | CCC(CC#N)OC(=O)N[C@@H](C)c1cccc(N/C(=C/[N+](=O)[O-])Nc2ccc(OC)c(OC)c2)c1 (some centres not stated) [IMPDH II inhibitor, 35] |
| < 30 µM | CCC(CC#N)OC(=O)N[C@@H](C)c1cccc(NCC(=O)Nc2ccc(OC)c(OC)c2)c1 (some centres not stated) [IMPDH II inhibitor, 36] |
| < 30 µM | CCC(CC#N)OC(=O)N[C@@H](C)c1cccc(NC(=O)CNc2ccc(C#N)c(OC)c2)c1 (some centres not stated) [IMPDH II inhibitor, 37] |
| < 30 µM | CCC(CC#N)OC(=O)N[C@@H](C)c1cccc(NC(=O)COc2ccc(C#N)c(OC)c2)c1 (some centres not stated) [IMPDH II inhibitor, 38] |
| < 30 µM | CCC(CC#N)OC(=O)N[C@@H](C)c1cccc(NC(=O)COc2ccc(OC)c(OC)c2)c1 (some centres not stated) [IMPDH II inhibitor, 39] |
| < 30 µM | CCC(CC#N)OC(=O)N[C@@H](C)c1cccc(NC(=O)NS(=O)(=O)c2ccc(OC)c(OC)c2)c1 (some centres not stated) [IMPDH II inhibitor, 40] |
| 0.38 µM | CCC(CC#N)OC(=O)N[C@@H](C)c1cccc(NC(=O)Nc2ccc(C#N)c(OC)c2)c1 (some centres not stated) [VX-148 (3)] |

The remaining lines, values behind:

| SMILES | IC50 |
| --- | --- |
| CCC(CC#N)OC(=O)N[C@@H](C)c1cccc(NC(=O)Nc2ccc3c(=O)cc(C)oc3c2)c1 (some centres not stated) [IMPDH II inhibitor, 26] | < 30 µM |
| CCC(CC#N)OC(=O)N[C@@H](C)c1cccc(NC(=O)Nc2ccc3c(=O)ccoc3c2)c1 (some centres not stated) [IMPDH II inhibitor, 27] | < 10 µM |
| CCC(CC#N)OC(=O)N[C@@H](C)c1cccc(NC(=O)N2CCN(c3ccc(C#N)c(OC)c3)CC2)c1 (some centres not stated) [IMPDH II inhibitor, 41] | < 30 µM |
| CCC(CC#N)OC(=O)N[C@@H](C)c1cccc(N2C(=O)CN(c3ccc(C#N)c(OC)c3)C2=O)c1 (some centres not stated) [IMPDH II inhibitor, 42] | 25 µM |
| CCC(CC#N)OC(=O)N[C@@H](C)c1cccc(NC(=O)c2cncc(-c3ccc(C#N)c(OC)c3)n2)c1 (some centres not stated) [IMPDH II inhibitor, 43] | < 30 µM |
| CCC(CC#N)OC(=O)N[C@@H](C)c1cccc(Nc2nc3ccc(-c4ccc(C#N)c(OC)c4)cc3[nH]2)c1 (some centres not stated) [IMPDH II inhibitor, 44] | < 30 µM |
| COc1cc(N/C(=N/C#N)Nc2cccc(OCC(=O)C(C)=O)c2)ccc1C#N [IMPDH II inhibitor, 45] | < 30 µM |
| COc1cc(N/C(=N/C#N)Nc2cccc(OCC(=O)O)c2)ccc1C#N [IMPDH II inhibitor, 46] | < 30 µM |
| COc1cc(N/C(=N/C#N)Nc2cccc(-c3nnn(C)n3)c2)ccc1C#N [IMPDH II inhibitor, 47] | < 30 µM |
| COc1cc(N/C(=N/C#N)Nc2cccc(-c3nnnn3C)c2)ccc1C#N [IMPDH II inhibitor, 48] | < 30 µM |
| COc1cc(N/C(=N/C#N)Nc2cccc(Cc3nnn(C)n3)c2)ccc1C#N [IMPDH II inhibitor, 49] | < 30 µM |
| COc1cc(N/C(=N/C#N)Nc2cccc(CCC(=O)O)c2)ccc1C#N [IMPDH II inhibitor, 50] | < 30 µM |
| COc1cc(N/C(=N/C#N)Nc2cccc(/C=C/C(=O)O)c2)ccc1C#N [IMPDH II inhibitor, 51] | < 30 µM |
| COc1cc(N/C(=N/C#N)Nc2cccc(CC(=O)O)c2)ccc1C#N [IMPDH II inhibitor, 52] | < 30 µM |
| COc1cc(N/C(=N/C#N)Nc2cccc(C(=O)O)c2)ccc1C#N [IMPDH II inhibitor, 53] | < 30 µM |
| COc1cc(N/C(=N/C#N)Nc2cccc(-c3ccccc3F)c2)ccc1C#N [IMPDH II inhibitor, 54] | < 30 µM |
| COc1cc(N/C(=N/C#N)Nc2cccc(-c3cccc(F)c3)c2)ccc1C#N [IMPDH II inhibitor, 55] | < 30 µM |
| COc1cc(N/C(=N/C#N)Nc2cccc(-c3ccc(F)cc3)c2)ccc1C#N [IMPDH II inhibitor, 56] | < 30 µM |
| COc1cc(N/C(=N/C#N)Nc2cccc(-c3cccc(C(F)(F)F)c3)c2)ccc1C#N [IMPDH II inhibitor, 57] | < 30 µM |
| COc1cc(N/C(=N/C#N)Nc2cccc(-c3cccc(C(=O)O)c3)c2)ccc1C#N [IMPDH II inhibitor, 58] | < 30 µM |
| COc1cc(N/C(=N/C#N)Nc2cccc(-c3ccc(C#N)cc3)c2)ccc1C#N [IMPDH II inhibitor, 59] | < 30 µM |
| COc1cc(N/C(=N/C#N)Nc2cccc(-c3cccc(C#N)c3)c2)ccc1C#N [IMPDH II inhibitor, 60] | < 30 µM |
| COc1cc(NC(=O)Nc2cccc(CNC(=O)OC3CCOC3)c2)ccc1-c1cnco1 (configuration not stated) [VX-497 (2)] | 0.0035 µM |
